Measured values taken from US20180243273A1, “Composition for Intravesical Administration for Treating Bladder Pain” (priority 2017, published 2018).

Assay: Storage of compositions with/without nitrogen-gassing and ascorbic acid, assay and impurities
Format: physicochemical
Details: phosphate buffer
Description: A possible beneficial effect of nitrogen-gassing during manufacturing and storage was assessed. Selected compositions were manufactured by dissolution of API via stirring for 24 h and stored after treatment with/without nitrogen at 25° C. or 6° C. for up to 28 days.
The manufactured batches consisted of phosphate buffer and vitamin E TPGS and were compared to compositions containing ascorbic acid 1%, additionally. API was used at 0.01 wt.-%, 0.02 wt.-% or 0.04 w.-%. The compositions were saturated with API, where 10 mg, 20 mg or 40 mg were dissolved in 100 g buffer containing 0.5 wt.-%, wt.-1% or 2 wt.-% vitamin E TPGS, respectively. The compositions were transferred into polystyrene bottles and stored at 25° C. or 6° C. A part of the compositions was treated with nitrogen during manufacturing and gassed with nitrogen prior to sealing (see FIG. 18). The compositions were tested for assay and purity of API after manufacturing, as well as after 7, 14 and 28 days.

[1] = vitamin E TPGS 0.5%, Asc. 1%, N2 +, API 0.01%, 6° C., t = 7 d
[2] = vitamin E TPGS 0.5%, Asc. 1%, N2 +, API 0.01%, 6° C., t = 14 d
[3] = vitamin E TPGS 0.5%, Asc. 1%, N2 +, API 0.01%, 6° C., t = 28 d
[4] = vitamin E TPGS 0.5%, Asc. 1%, N2 +, API 0.01%, 25° C., t = 7 d
[5] = vitamin E TPGS 0.5%, Asc. 1%, N2 +, API 0.01%, 25° C., t = 14 d
[6] = vitamin E TPGS 0.5%, Asc. 1%, N2 +, API 0.01%, 25° C., t = 28 d
[7] = vitamin E TPGS 0.5%, Asc. 1%, N2 +, API 0.01%, t = 0
[8] = vitamin E TPGS 0.5%, Asc. 1%, N2 −, API 0.01%, 6° C., t = 7 d
[9] = vitamin E TPGS 0.5%, Asc. 1%, N2 −, API 0.01%, 6° C., t = 14 d
[10] = vitamin E TPGS 0.5%, Asc. 1%, N2 −, API 0.01%, 6° C., t = 28 d
[11] = vitamin E TPGS 0.5%, Asc. 1%, N2 −, API 0.01%, 25° C., t = 7 d
[12] = vitamin E TPGS 0.5%, Asc. 1%, N2 −, API 0.01%, 25° C., t = 14 d
[13] = vitamin E TPGS 0.5%, Asc. 1%, N2 −, API 0.01%, 25° C., t = 28 d
[14] = vitamin E TPGS 0.5%, Asc. 1%, N2 −, API 0.01%, t = 0
[15] = vitamin E TPGS 0.5%, no Asc., N2 +, API 0.01%, 6° C., t = 28 d
[16] = vitamin E TPGS 0.5%, no Asc., N2 +, API 0.01%, 25° C., t = 7 d
[17] = vitamin E TPGS 0.5%, no Asc., N2 +, API 0.01%, 25° C., t = 14 d
[18] = vitamin E TPGS 0.5%, no Asc., N2 +, API 0.01%, t = 0
[19] = vitamin E TPGS 0.5%, no Asc., N2 −, API 0.01%, 6° C., t = 7 d
[20] = vitamin E TPGS 0.5%, no Asc., N2 −, API 0.01%, 6° C., t = 14 d
[21] = vitamin E TPGS 0.5%, no Asc., N2 −, API 0.01%, 6° C., t = 28 d
[22] = vitamin E TPGS 0.5%, no Asc., N2 −, API 0.01%, 25° C., t = 7 d
[23] = vitamin E TPGS 0.5%, no Asc., N2 −, API 0.01%, 25° C., t = 14 d
[24] = vitamin E TPGS 0.5%, no Asc., N2 −, API 0.01%, 25° C., t = 28 d
[25] = vitamin E TPGS 0.5%, no Asc., N2 −, API 0.01%, t = 0
[26] = vitamin E TPGS 1%, Asc. 1%, N2 +, API 0.02%, 6° C., t = 7 d
[27] = vitamin E TPGS 1%, Asc. 1%, N2 +, API 0.02%, 6° C., t = 14 d
[28] = vitamin E TPGS 1%, Asc. 1%, N2 +, API 0.02%, 6° C., t = 28 d
[29] = vitamin E TPGS 1%, Asc. 1%, N2 +, API 0.02%, 25° C., t = 7 d
[30] = vitamin E TPGS 1%, Asc. 1%, N2 +, API 0.02%, 25° C., t = 14 d
[31] = vitamin E TPGS 1%, Asc. 1%, N2 +, API 0.02%, 25° C., t = 28 d
[32] = vitamin E TPGS 1%, Asc. 1%, N2 +, API 0.02%, t = 0
[33] = vitamin E TPGS 1%, no Asc., N2 +, API 0.02%, 6° C., t = 7 d
[34] = vitamin E TPGS 1%, no Asc., N2 +, API 0.02%, 6° C., t = 14 d
[35] = vitamin E TPGS 1%, no Asc., N2 +, API 0.02%, 6° C., t = 28 d
[36] = vitamin E TPGS 1%, no Asc., N2 +, API 0.02%, 25° C., t = 7 d
[37] = vitamin E TPGS 1%, no Asc., N2 +, API 0.02%, 25° C., t = 14 d

## CN(C)[C@]1(c2cccc(F)c2)CC[C@]2(CC1)c1[nH]c3ccccc3c1CCN2C(=O)/C=C/c1ccccc1 [API, cis-(E)-4-(3-fluorophenyl)-2′,3′,4′,9′-tetrahydro-N,N-dimethyl-2′-(1-oxo-3-phenyl-2-propenyl)-spiro[cyclohexane-1,1′[1H]-pyrido[3,4-b]indol]-4-amine]
[1]
  Assay: 65.65 µg/mL
  Impurities: 0.65 % (a/a)
[2]
  Assay: 65.65 µg/mL
  Impurities: 29.21 % (a/a)
[3]
  Assay: 65.82 µg/mL
  Impurities: 0.70 % (a/a)
[4]
  Assay: 63.63 µg/mL
  Impurities: 1.00 % (a/a)
[5]
  Assay: 61.53 µg/mL
  Impurities: 1.74 % (a/a)
[6]
  Assay: 63.95 µg/mL
  Impurities: 1.82 % (a/a)
[7]
  Assay: 66.61 µg/mL
  Impurities: 0.58 % (a/a)
[8]
  Assay: 66.21 µg/mL
  Impurities: 0.70 % (a/a)
[9]
  Assay: 66.54 µg/mL
  Impurities: 0.83 % (a/a)
[10]
  Assay: 66.15 µg/mL
  Impurities: 0.70 % (a/a)
[11]
  Assay: 65.66 µg/mL
  Impurities: 0.53 % (a/a)
[12]
  Assay: 65.27 µg/mL
  Impurities: 1.09 % (a/a)
[13]
  Assay: 61.46 µg/mL
  Impurities: 1.36 % (a/a)
[14]
  Assay: 66.81 µg/mL
  Impurities: 0.66 % (a/a)
[15]
  Assay: 49.80 µg/mL
  Impurities: 0.54 % (a/a)
[16]
  Assay: 49.76 µg/mL
  Impurities: 0.36 % (a/a)
[17]
  Assay: 49.65 µg/mL
  Impurities: 1.19 % (a/a)
[18]
  Assay: 49.49 µg/mL
  Impurities: 0.71 % (a/a)
[19]
  Assay: 50.43 µg/mL
  Impurities: 0.63 % (a/a)
[20]
  Assay: 50.71 µg/mL
  Impurities: 0.94 % (a/a)
[21]
  Assay: 50.27 µg/mL
  Impurities: 0.52 % (a/a)
[22]
  Assay: 50.56 µg/mL
  Impurities: 0.45 % (a/a)
[23]
  Assay: 50.23 µg/mL
  Impurities: 1.13 % (a/a)
[24]
  Assay: 50.36 µg/mL
  Impurities: 1.06 % (a/a)
[25]
  Assay: 50.22 µg/mL
  Impurities: 0.68 % (a/a)
[26]
  Assay: 109.93 µg/mL
  Impurities: 0.73 % (a/a)
[27]
  Assay: 110.67 µg/mL
  Impurities: 0.90 % (a/a)
[28]
  Assay: 110.25 µg/mL
  Impurities: 0.91 % (a/a)
[29]
  Assay: 107.03 µg/mL
  Impurities: 1.04 % (a/a)
[30]
  Assay: 106.77 µg/mL
  Impurities: 1.27 % (a/a)
[31]
  Assay: 93.34 µg/mL
  Impurities: 1.79 % (a/a)
[32]
  Assay: 110.99 µg/mL
  Impurities: 0.62 % (a/a)
[33]
  Assay: 93.47 µg/mL
  Impurities: 0.64 % (a/a)
[34]
  Assay: 93.72 µg/mL
  Impurities: 0.75 % (a/a)
[35]
  Assay: 93.93 µg/mL
  Impurities: 0.58 % (a/a)
[36]
  Assay: 93.61 µg/mL
  Impurities: 0.69 % (a/a)
[37]
  Assay: 93.28 µg/mL
  Impurities: 0.86 % (a/a)
